Converted amounts (≈) assume the structure as drawn. Read-outs that look alike come from different tables or passages of the source.
Legend:
Type in all cases: cell-based
Pasteurella hemolytica = experiment: MIC (minimum inhibitory concentration), agar dilution, Pasteurella hemolytica; conditions: Pasteurella, read-out: MIC
Method in brief: (§1)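 Each organism receives an inoculum of approx. 10^3–10^4 CFU, taken from a 5% CO2 BHI subculture standardised to 0.5 McFarland and diluted 1:20. It is spotted on Mueller-Hinton agar containing the compound, then incubated for 16–18 h at 37 °C with CO2.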

Pasteurella multocida = experiment: MIC, agar dilution, Pasteurella multocida; conditions: Pasteurella multocida; strain B77-18; read-out: MIC
Method in brief: as §1

Escherichia coli = experiment: MIC, agar dilution, Escherichia coli; conditions: Escherichia coli, read-out: MIC
Method in brief: as §1

Salmonella choleraesuis = experiment: MIC, agar dilution, Salmonella choleraesuis; conditions: Salmonella enterica, read-out: MIC
Method in brief: as §1

Salmonella typhimurium = experiment: MIC, agar dilution, Salmonella typhimurium; conditions: Salmonella enterica, read-out: MIC
Method in brief: as §1

[1] = tested on: Bordetella bronchiseptica; experiment: MIC, agar dilution, Bordetella bronchiseptica; conditions: Bordetella bronchiseptica, read-out: MIC
Method in brief: as §1

Pseudomonas aeruginosa = experiment: MIC, agar dilution, Pseudomonas aeruginosa; conditions: Pseudomonas aeruginosa; strain ATCC27853; read-out: MIC
Method in brief: as §1

Staphylococcus aureus = experiment: MIC, agar dilution, Staphylococcus aureus; conditions: Staphylococcus aureus, read-out: MIC
Method in brief: as §1

Streptococcus agalactiae = experiment: MIC, agar dilution, Streptococcus agalactiae; conditions: Streptococcus agalactiae, read-out: MIC
Method in brief: as §1

Streptococcus bovis = experiment: MIC, agar dilution, Streptococcus bovis; conditions: Streptococcus equinus; strain UC6281; read-out: MIC
Method in brief: as §1

Strep. faecalis = experiment: MIC, agar dilution, Strep. faecalis; conditions: Enterococcus faecalis
Description: Stock solution of each test antibiotic compound were prepared to have a concentration of 2 mg. of the test compound per milliliter in sterile water of 0.1M ammonium acetate solution. The amount of each compound used was adjusted for base compound activity as calculated from the purity data for the selected batch of compound.
The dilution procedure described by Washington and Sutter [Manual of Clinical Microbiology, 3rd, Edit. (Lennett, E. H. et al, Eds.), pp. 453-458 (1980), American Society for Microbiology, Washington, D.C.] was modified so that serial concentrations of 128 to 0.0625 microgram/ml. in sterile water was obtained. Then 1.5 ml. aliquots of these test antibiotic dilution mixtures are added to 13.5 molten (50° C.) Mueller-Hinton agar. Each resulting mixture is poured into 15×100 mm, sterile Petri plates and allowed to dry at room temperature overnight.
Test bacterial cultures are maintained at -70° C. on glass beads. [See R. J. Yancey, Jr. et al, Amer. Jr. of Vet. Research, 48, No. 7, pp. 1050-1053, (1987)]. At least one bacteria-laden bead per culture is dropped into one ml. of brain heart infusion (BHI) broth for overnight culture at 37° C. in 5% V/V carbon dioxide in air atmosphere.
On the data of assay, 2 to 8 drops of the bacterial broth cultures are transferred to fresh BHI broth (1 ml.) and the mixture is incubated for 4 to 6 hours at 37° C. in a 5% V/V carbon dioxide in air atmosphere. The resulting cultures are then diluted to match a 0.5 MacFarland standard and further diluted 1:20 V/V with sterile saline solution.
A 0.001 ml. drop of the resulting mixture, containing approximately 10^3 to 10^4 colony forming units (CFU) of each test bacteria organism, is dispensed onto the surface of the test antibiotic compound test plates with a Steer's type replicator. The resulting innoculated plates are incubated 16 to 18 hours at 37° C. with a carbon dioxide atmosphere.

Corynebacterium pyogenes = experiment: MIC, agar dilution, Corynebacterium pyogenes; conditions: strain 213-2; read-out: MIC
Method in brief: as §1

[2] = CHOLERAESUIS / UC6073, strain UC6073
[3] = CHOLERAESUIS / UC6077, strain UC6077
[4] = TYPHIMURIUM / UC6162, strain UC6162
[5] = TYPHIMURIUM / UC6164, strain UC6164

MIC (Pasteurella multocida) [µg/mL]	MIC (Escherichia coli; strain ATCC25922) [µg/mL]	MIC (Escherichia coli; strain P75-1) [µg/mL]	MIC (Escherichia coli; strain UC3784) [µg/mL]	MIC (Escherichia coli; strain UC6720) [µg/mL]	MIC (Salmonella typhimurium; [4]) [µg/mL]	MIC (Salmonella typhimurium; [5]) [µg/mL]	MIC ([1]; strain UC3287) [µg/mL]	MIC ([1]; strain UC6313) [µg/mL]	MIC (Pseudomonas aeruginosa) [µg/mL]	MIC (Staphylococcus aureus; strain ATCC25923) [µg/mL]	MIC (Staphylococcus aureus; strain UC6093) [µg/mL]	MIC (Staphylococcus aureus; strain UC6097) [µg/mL]	MIC (Staphylococcus aureus; strain UC6688) [µg/mL]	MIC (Staphylococcus aureus; strain UC9201) [µg/mL]	Compound	MIC (Pasteurella hemolytica; strain B77-19) [µg/mL]	MIC (Pasteurella hemolytica; strain UC6531) [µg/mL]	MIC (Pasteurella hemolytica; strain UC6532) [µg/mL]	MIC (Salmonella choleraesuis; [2]) [µg/mL]	MIC (Salmonella choleraesuis; [3]) [µg/mL]	further results
≤ 0.06	0.5	0.5	0.5	0.5	0.5	0.5	> 32	> 32	> 32	16	16	16	> 32	16	CO/N=C(\C(=O)N[C@@H]1C(=O)N2C(C(=O)O)=C(CS)CS[C@H]12)c1csc(N)n1 [Formula III compound, 3-mercaptomethyl-7β-[2-(2-amino-1,3-thiazol-4-yl)-(Z)-2-(methoxyimino)acetamido]ceph-3-em-4-carboxylic acid]	≤ 0.06	≤ 0.06	≤ 0.06	2	1	MIC (Streptococcus agalactiae; strain UC3947): ≤ 0.06 µg/mL; MIC (Streptococcus agalactiae; strain UC6892): ≤ 0.06 µg/mL; MIC (Streptococcus bovis): ≤ 0.06 µg/mL; MIC (Strep. faecalis; strain ATCC29212): > 32 µg/mL; MIC (Strep. faecalis; strain UC241): > 32 µg/mL; MIC (Strep. faecalis; strain UC694): > 32 µg/mL; MIC (Corynebacterium pyogenes): 0.25 µg/mL
≤ 0.06	0.13 (≈ 0.248 µM)	0.13 (≈ 0.248 µM)	0.13 (≈ 0.248 µM)	0.13 (≈ 0.248 µM)	0.25 (≈ 0.477 µM)	0.25 (≈ 0.477 µM)	> 32	> 32	32 (≈ 61.1 µM)	0.25 (≈ 0.477 µM)	1 (≈ 1.91 µM)	0.5 (≈ 0.955 µM)	32 (≈ 61.1 µM)	1 (≈ 1.91 µM)	CO/N=C(\C(=O)N[C@@H]1C(=O)N2C(C(=O)O)=C(CSC(=O)c3ccco3)CS[C@H]12)c1csc(N)n1 [ceftiofur, 7-[2-(amino-1,3-thiazol-4-yl)-2-(methoxyimino)acetamido]-3-[(fur-2-ylcarbonyl)thiomethyl]-3-cephem-4-carboxylic acid, reference compound]	≤ 0.06	≤ 0.06	≤ 0.06	1 (≈ 1.91 µM)	2 (≈ 3.82 µM)	MIC (Streptococcus agalactiae; strain UC3947): ≤ 0.06 µg/mL; MIC (Streptococcus agalactiae; strain UC6892): ≤ 0.06 µg/mL; MIC (Streptococcus bovis): ≤ 0.06 µg/mL; MIC (Strep. faecalis; strain ATCC29212): 32 µg/mL (≈ 61.1 µM); MIC (Strep. faecalis; strain UC241): > 32 µg/mL; MIC (Strep. faecalis; strain UC694): > 32 µg/mL; MIC (Corynebacterium pyogenes): < 0.06 µg/mL

Compound	MIC (Pasteurella multocida) [µg/mL]	MIC (Escherichia coli; strain ATCC25922) [µg/mL]	MIC (Escherichia coli; strain P75-1) [µg/mL]	MIC (Escherichia coli; strain UC3784) [µg/mL]	MIC (Escherichia coli; strain UC6720) [µg/mL]	MIC (Salmonella typhimurium; [4]) [µg/mL]	MIC (Salmonella typhimurium; [5]) [µg/mL]	MIC ([1]; strain UC3287) [µg/mL]	MIC ([1]; strain UC6313) [µg/mL]	MIC (Pseudomonas aeruginosa) [µg/mL]	MIC (Staphylococcus aureus; strain ATCC25923) [µg/mL]	MIC (Staphylococcus aureus; strain UC6093) [µg/mL]	MIC (Staphylococcus aureus; strain UC6097) [µg/mL]	MIC (Staphylococcus aureus; strain UC6688) [µg/mL]	MIC (Staphylococcus aureus; strain UC9201) [µg/mL]	MIC (Pasteurella hemolytica; strain B77-19) [µg/mL]	MIC (Pasteurella hemolytica; strain UC6531) [µg/mL]	MIC (Pasteurella hemolytica; strain UC6532) [µg/mL]	MIC (Salmonella choleraesuis; [2]) [µg/mL]	MIC (Salmonella choleraesuis; [3]) [µg/mL]	further results
CO/N=C(\C(=O)N[C@@H]1C(=O)N2C(C(=O)O)=C(CO)CS[C@H]12)c1csc(N)n1 [desacetyl cefotoxime, 7-[2-(2-amino-1,3-thiazol-4-yl)-(syn)-2-methoxyiminoacetamido]-3-hydroxymethylceph-3-em-4-carboxylic acid, reference compound]	≤ 0.06	0.25 (≈ 0.605 µM)	0.25 (≈ 0.605 µM)	0.25 (≈ 0.605 µM)	0.25 (≈ 0.605 µM)	0.13 (≈ 0.314 µM)	0.13 (≈ 0.314 µM)	> 32	> 32	> 32	4 (≈ 9.67 µM)	16 (≈ 38.7 µM)	16 (≈ 38.7 µM)	> 32	16 (≈ 38.7 µM)	≤ 0.06	≤ 0.06	≤ 0.06	0.5 (≈ 1.21 µM)	1 (≈ 2.42 µM)	MIC (Streptococcus agalactiae; strain UC3947): ≤ 0.6 µg/mL; MIC (Streptococcus agalactiae; strain UC6892): ≤ 0.06 µg/mL; MIC (Streptococcus bovis): ≤ 0.06 µg/mL; MIC (Strep. faecalis; strain ATCC29212): > 32 µg/mL; MIC (Strep. faecalis; strain UC241): > 32 µg/mL; MIC (Strep. faecalis; strain UC694): > 32 µg/mL; MIC (Corynebacterium pyogenes): 0.25 µg/mL (≈ 0.605 µM)
